{"source": "patent US6916806B2", "about": "“Medicinal composition containing 1,3-thiazine derivative” (priority 2001, dated 2005)", "key": {"[1]": {"target": "T1, human CB1 receptor (CB1R) (Homo sapiens, UniProt P21554)", "T1 construct": "expressed in transfected cells", "T1 sequence (P21554 whole entry)": "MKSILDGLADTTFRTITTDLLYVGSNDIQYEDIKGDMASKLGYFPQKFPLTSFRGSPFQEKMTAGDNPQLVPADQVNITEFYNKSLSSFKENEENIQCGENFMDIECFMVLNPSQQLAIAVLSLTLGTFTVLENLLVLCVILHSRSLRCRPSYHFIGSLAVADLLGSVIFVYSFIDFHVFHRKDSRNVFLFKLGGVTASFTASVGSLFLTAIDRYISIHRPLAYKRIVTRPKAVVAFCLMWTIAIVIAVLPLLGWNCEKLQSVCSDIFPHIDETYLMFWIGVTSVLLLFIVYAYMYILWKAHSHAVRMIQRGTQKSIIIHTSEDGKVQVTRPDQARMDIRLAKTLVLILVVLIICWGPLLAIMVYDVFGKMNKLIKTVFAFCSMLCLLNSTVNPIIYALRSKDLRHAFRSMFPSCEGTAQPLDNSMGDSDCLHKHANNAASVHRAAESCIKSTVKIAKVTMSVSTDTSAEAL", "assay": "Receptor binding assay of human CB1 receptor (CB1R), membranes of CB1R-expressing CHO cells", "procedure": "(§1) The coding region of human CB2R cDNA (Munro etc, Nature, 1993, 365, 61-65) was inserted into the mammalian expression vector, pSVL SV40 Late Promoter Expression Vector (Amersham Pharmacia Biotech Inc.). The prepared vector was transfected into Chinese Hamster Ovary (CHO) cells with LipofectAMINE reagent (Gibco BRL) according to the manufacture's protocol, and the stable CB2R-expressing clones were selected.\n(§2) The crude membrane fractions were prepared from the CB2R-expressing CHO cells. Receptor binding assay was performed by incubating the membranes with each test compound and [^3H]CP55940 (at a final concentration of 0.5 nM: NEN Life Science Products) in the assay buffer (50 mM Tris-HCl, 1 mM EDTA, 3 mM MgCl2, pH 7.4) containing 0.5% bovine serum albumin (BSA) for 2 h at 25° C. The incubation mixture was filtered through 1% polyethylenimine-treated GF/C glass filter and washed with 50 mM Tris-HCl (pH 7.4) containing 0.1% BSA. The radioactivity was then counted with a liquid scintillation counter.\n(§3) For the receptor binding assay of human CB1 receptor (CB1R), the stable CB1R-expressing CHO cells were prepared as described above, and the binding assay was performed using their membrane fractions. As a consequence of these studies, the Ki values of each test compound for both cannabinoid receptors were determined, which were presented in Table."}, "[2]": {"target": "T2, human CB2 receptor (CB2R) (Homo sapiens, UniProt P34972)", "T2 construct": "The coding region of human CB2R cDNA (Munro etc, Nature, 1993, 365, 61-65) was inserted; expressed in transfected cells", "T2 sequence (P34972 whole entry)": "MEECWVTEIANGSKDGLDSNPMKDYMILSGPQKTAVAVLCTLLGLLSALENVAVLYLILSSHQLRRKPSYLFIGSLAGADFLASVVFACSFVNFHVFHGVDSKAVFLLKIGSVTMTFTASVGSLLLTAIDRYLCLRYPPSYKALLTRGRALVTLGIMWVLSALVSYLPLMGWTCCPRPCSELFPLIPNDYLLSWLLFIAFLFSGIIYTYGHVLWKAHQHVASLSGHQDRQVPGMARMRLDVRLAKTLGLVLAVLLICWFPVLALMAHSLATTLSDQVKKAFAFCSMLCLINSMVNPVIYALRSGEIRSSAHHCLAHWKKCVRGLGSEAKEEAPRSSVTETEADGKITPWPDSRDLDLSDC", "assay": "Human CB2 receptor (CB2R) binding inhibition, [3H]CP55940, membranes of CB2R-expressing CHO cells", "procedure": "as §1, §2, §3"}, "human CB2R": {"target": "T3, human CB2R (Homo sapiens, UniProt P34972)", "T3 construct": "The coding region of human CB2R cDNA (Munro etc, Nature, 1993, 365, 61-65) was inserted; expressed in transfected cells", "T3 sequence (P34972 whole entry)": "as above", "assay": "CB2R-mediated suppression of forskolin-stimulated cAMP synthesis in CHO cells expressing human CB2R", "type": "cell-based", "procedure": "The CHO cells expressing human CB2R were incubated with test compounds for 15 min. After the incubation, forskolin (final concentration of 4 μM, Sigma) was added and the cells were incubated for 20 min at 37° C. The reaction was stopped by the addition of 1N HCl and the amount of cAMP in the cell supernatant was measured using an EIA kit (Amersham Pharmacia Biotech) according to the manufacture's protocol.\nThe antagonistic activity of each compound was also evaluated in this assay."}}, "note": "pIC50, pKi: −log10 of the molar value.", "data": [{"smiles": "C=CCSC(=S)N1CC2(CCCC2)CSC1=Nc1ccccc1C(C)C", "note": "[Compound I-74]", "values": [{"measurement": "pKi", "setting": "[1]", "value": 6.15}, {"measurement": "pKi", "setting": "[2]", "value": 8.92}, {"measurement": "pIC50", "setting": "human CB2R", "value": 8.80}]}, {"smiles": "CCOC(=O)CSC(=S)N1CC(CC)(CC)CSC1=Nc1ccccc1C(C)C", "note": "[Compound I-40]", "values": [{"measurement": "pKi", "setting": "[2]", "value": 9.30}]}, {"smiles": "C=CCSC(=S)N1CC(CC)(CC)CSC1=Nc1ccccc1C(C)C", "note": "[Compound I-39]", "values": [{"measurement": "pKi", "setting": "[1]", "value": 6.04}, {"measurement": "pKi", "setting": "[2]", "value": 8.70}, {"measurement": "pIC50", "setting": "human CB2R", "value": 7.86}]}, {"smiles": "Cc1cc(CSC(=S)N2CC3(CCCC3)CSC2=Nc2ccccc2C(C)C)on1", "note": "[Compound I-78]", "values": [{"measurement": "pKi", "setting": "[1]", "value": 5.99}]}, {"smiles": "CC(C)c1ccccc1N=C1SCC(C)(C)CN1C(=S)SCC(=O)OC(C)(C)C", "note": "[Compound I-14]", "values": [{"measurement": "pKi", "setting": "[1]", "value": "< 5.30"}, {"measurement": "pKi", "setting": "[2]", "value": 8.70}]}, {"smiles": "CCC1(CC)CSC(=Nc2ccccc2C(C)C)N(C(=S)SCC(=O)OC(C)(C)C)C1", "note": "[Compound I-42]", "values": [{"measurement": "pKi", "setting": "[1]", "value": "< 5.30"}, {"measurement": "pKi", "setting": "[2]", "value": 9.52}]}, {"smiles": "CCC1(CC)CSC(=Nc2ccccc2C(C)C)N(C(=S)SCC=C(C)C)C1", "note": "[Compound I-45]", "values": [{"measurement": "pKi", "setting": "[1]", "value": 6.41}, {"measurement": "pKi", "setting": "[2]", "value": 8.92}]}, {"smiles": "COc1ccccc1N=C1SCC2(CCCC2)CN1C(=S)SCC(=O)OC(C)(C)C", "note": "[Compound I-80]", "values": [{"measurement": "pKi", "setting": "[1]", "value": "< 5.30"}, {"measurement": "pKi", "setting": "[2]", "value": 8.66}]}, {"smiles": "C=CCSC(=S)N1CC2(CCOCC2)CSC1=Nc1ccccc1C(C)C", "note": "[Compound I-92]", "values": [{"measurement": "melting point", "value": "73.5 to 75", "unit": "°C"}, {"measurement": "pKi", "setting": "[1]", "value": 5.88}, {"measurement": "pKi", "setting": "[2]", "value": 8.22}, {"measurement": "pIC50", "setting": "human CB2R", "value": "> 9.70"}]}, {"smiles": "C=CCSC(=S)N1CC(CC)(CC)CSC1=Nc1ccccc1C(C)CC", "note": "(stereo not drawn) [Compound I-49]", "values": [{"measurement": "pKi", "setting": "[1]", "value": 5.95}, {"measurement": "pKi", "setting": "[2]", "value": 8.54}, {"measurement": "pIC50", "setting": "human CB2R", "value": 8.66}]}, {"smiles": "C=CCSC(=S)N1CC2(CCCCC2)CSC1=Nc1ccc(CC)cc1", "note": "[Compound I-88]", "values": [{"measurement": "melting point", "value": "98 to 100", "unit": "°C"}]}, {"smiles": "C=CCCSC(=S)N1CC(CC)(CC)CSC1=Nc1ccccc1C(C)C", "note": "[Compound I-46]", "values": [{"measurement": "pKi", "setting": "[1]", "value": 5.49}, {"measurement": "pKi", "setting": "[2]", "value": 8.70}, {"measurement": "pIC50", "setting": "human CB2R", "value": 8.27}]}, {"smiles": "CCC1(CC)CSC(=Nc2ccccc2C(C)C)N(C(=S)SCC(=O)OC(C)C)C1", "note": "[Compound I-41]", "values": [{"measurement": "pKi", "setting": "[2]", "value": 9.00}]}, {"smiles": "CC=CCSC(=S)N1CC(CC)(CC)CSC1=Nc1ccccc1C(C)C", "note": "[Compound I-44]", "values": [{"measurement": "pKi", "setting": "[1]", "value": 6.49}, {"measurement": "pKi", "setting": "[2]", "value": 8.96}]}, {"smiles": "CC(C)OC(=O)CSC(=S)N1CC(C)(C)CSC1=Nc1ccccc1C(C)C", "note": "[Compound I-13]", "values": [{"measurement": "melting point", "value": "95 to 96", "unit": "°C"}, {"measurement": "pKi", "setting": "[2]", "value": 8.22}]}, {"smiles": "CSC(=S)N1CC2(CCOCC2)CSC1=Nc1ccccc1C(C)C", "note": "[Compound I-93]", "values": [{"measurement": "melting point", "value": "127 to 128", "unit": "°C"}, {"measurement": "pKi", "setting": "[1]", "value": 5.81}, {"measurement": "pKi", "setting": "[2]", "value": 8.52}, {"measurement": "pIC50", "setting": "human CB2R", "value": 9.22}]}]}
